{
  "source": "paper PMC6797804",
  "about": "“Histone H3K23-specific acetylation by MORF is coupled to H3K14 acylation” (Nature Communications, 2019)",
  "key": {"[1]": {"test_system": "native MORF complex", "assay": "HAT assay, native MORF complex from K562 cells", "format": "biochemical, Homo sapiens", "conditions": "native WT MORF complex; H3 peptides residues 1–29, 3H-Ac-CoA, pH 8, 30 min at 30 °C; scintillation CPM; n = 2", "description": "For purification of native complexes, after large-scale expansion of K562 clones, tandem affinity purifications (TAP) of MORF and MOZ complexes were performed on nuclear extracts as previously described[43]. Briefly, nuclear extracts were prepared following standard procedures and precleared with CL6B Sepharose beads.\n(§1) The amounts of native (K562) or overexpressed (293T) MORF complexes were normalized empirically following SDS-PAGE and transfer onto nitrocellulose membrane. Anti-FLAG M2 conjugated to horseradish peroxydase (HRP; Sigma) was used at a 1:10,000 dilution and the immunoblots were visualized using a Western Lightning plus-ECL reagent (Perkin-Elmer). Anti-HA-HRP (clone 3F10, Roche) was used at a 1:2000 dilution."}, "[2]": {"test_system": "MORFN F287A complex", "assay": "HAT assay, MORFN F287A complex overexpressed in 293T cells", "format": "biochemical", "conditions": "H3K23ac peptide residues 1–29, 3H-Ac-CoA, pH 8, 30 min at 30 °C, CPM, n = 2", "procedure": "Cells were harvested 48 h post-co-transfection and lysed in high-salt buffer (450 mM NaCl, 50 mM Tris-HCl (pH 8.0), 1% TX-100, 2 mM MgCl2, 0.1 mM ZnCl2, 2 mM EDTA, 10% glycerol) supplemented with protease inhibitor mixture. The NaCl concentration was reduced to 225 mM and the whole cell extract centrifuged at 14,000 rpm for 30 min. […] FLAG beads were next washed with the 225 mM NaCl buffer and eluted with 200 μg/ml of 3× FLAG peptide (Sigma).\nIn Fig. 4e and Supplementary Fig. 7, FLAG-tagged MORF proteins were overexpressed and prepared from transiently transfected 293T cells. Briefly, approximately 2 mg of total cell extract was incubated with 25 μl of M2-agarose beads (Sigma) overnight at 4 °C. […]\nAcetyltransferase activity of the purified complexes was measured with 0.125 µCi of ^3H labeled Ac-CoA (2.1 Ci/mmol; PerkinElmer Life Sciences). […] The reactions were then captured on P81 filter paper, the free H3-labeled Ac-CoA was washed away and the paper was analyzed using Liquid Scintillation. […]\nIn Fig. 4e and Supplementary Fig. 7, purified MORF proteins were incubated at 37 °C for indicated times with peptides (1 μg) and 0.1 mM acetyl-CoA in HAT reaction buffer (50 mM Tris, pH 8.0, 0.1 mM EDTA, 10% glycerol, 1 mM PMSF, and 1 mM DTT) in a total volume of 50 μL. Reactions were quenched by flash-freezing in liquid nitrogen and then analyzed by SDS-PAGE and Western blot."}, "[3]": {"test_system": "MORFN complex", "assay": "HAT assay, WT MORFN complex overexpressed in 293T cells", "format": "biochemical", "conditions": "H3 peptides residues 1–29, 3H-Ac-CoA, pH 8, 30 min at 30 °C, CPM, n = 2", "excerpt": "as §1"}},
  "data": [
    {"substance": "H3K23ac: H3 peptide (residues 1–29) pre-acetylated at Lys23", "values": [
      {"measurement": "decrease in HAT activity relative to unmodified H3 peptide", "setting": "[1]", "value": "~ 12 fold"},
      {"measurement": "HAT activity of MORFN F287A complex, in words", "setting": "[2]", "value": "substantially reduced residual enzymatic activity"},
      {"measurement": "decrease in HAT activity relative to unmodified H3 peptide", "setting": "[3]; WT MORFN complex (293T)", "value": "~ 7 fold"},
      {"measurement": "HAT activity of MORFN complex, in words", "setting": "[3]; WT MORFN complex", "value": "substantially reduced residual enzymatic activity"}
    ]}
  ]
}
